Data published in ChEMBL document CHEMBL4680157, “Design, synthesis and biological evaluation of novel TRβ selective agonists sustained by ADME-toxicity analysis” (Eur J Med Chem, 2020).
pEC50: −log10 of the molar value. Calls of active or inactive are those of the source. The calls are words filed in the database; no cut-off is given here.

How the values were obtained:
[1] = Toxicity in F344 rat assessed as effect on serum ALT/GPT level at 50 ug per 100 g body weight, ig administered daily for 3 days (reference value: 46 +/- 4 U/L); details: in vivo, po, 72 h, dose 50 µg, time 3 day
[2] = Toxicity in F344 rat assessed as effect on serum ALT/GPT level at 75 ug per 100 g body weight, ig administered daily for 3 days (reference value: 46 +/- 4 U/L); details: in vivo, po, 72 h, dose 75 µg, time 3 day
[3] = Toxicity in F344 rat assessed as reduction in liver and body weight ratio at 50 to 100 ug per 100 g body weight, ig administered daily for 3 days; format: tissue-based; details: in vivo, po, 72 h, dose 50-100 µg, time 3 day
[4] = Toxicity in F344 rat assessed as effect on serum triglycerides level at 75 ug per 100 g body weight, ip administered daily for 3 days (reference value: 86.8 +/- 10.4 mg/dl); format: organism-based; details: in vivo, 72 h, dose 75 µg, time 3 day
[5] = Toxicity in F344 rat assessed as effect on serum glucose level at 50 ug per 100 g body weight, ig administered daily for 3 days (reference value: 151 +/- 13.5 mg/dl); details: in vivo, po, 72 h, dose 50 µg, time 3 day
[6] = target: T1, AMP-activated protein kinase, AMPK (Homo sapiens) (UniProt P54646+O43741+P54619+Q9UGJ0+Q9Y478+Q13131+Q9UGI9); assay: Activation of AMPK in human HepG2 cells assessed as ratio of phosphorylated AMPK at 10 uM measured after 24 hrs by Western blot analysis; format: cell-based; details: filed as activator
[7] = Toxicity in F344 rat assessed as effect on serum ALT/GPT level at 75 ug per 100 g body weight, ip administered daily for 3 days (reference value: 46 +/- 4 U/L); format: organism-based; details: in vivo, 72 h, dose 75 µg, time 3 day
[8] = Toxicity in F344 rat assessed as effect on serum bilirubin level at 75 ug per 100 g body weight, ip administered daily for 3 days (reference value: 1.4 +/- 0.2 mg/dl); format: organism-based; details: in vivo, 72 h, dose 75 µg, time 3 day
[9] = Toxicity in F344 rat assessed as effect on serum triglycerides level at 100 ug per 100 g body weight, ig administered daily for 3 days (reference value: 86.8 +/- 10.4 mg/dl); details: in vivo, po, 72 h, dose 100 µg, time 3 day
[10] = Toxicity in F344 rat assessed as effect on serum cholesterol level at 100 ug per 100 g body weight, ig administered daily for 3 days (reference value: 67.2 +/- 2.5 mg/dl); details: in vivo, po, 72 h, dose 100 µg, time 3 day
[11] = Toxicity in F344 rat assessed as effect on serum glucose level at 100 ug per 100 g body weight, ig administered daily for 3 days (reference value: 151 +/- 13.5 mg/dl); details: in vivo, po, 72 h, dose 100 µg, time 3 day
[12] = Toxicity in F344 rat assessed as effect on serum AST/GOT level at 100 ug per 100 g body weight, ig administered daily for 3 days (reference value: 153 +/- 11 U/L); details: in vivo, po, 72 h, dose 100 µg, time 3 day
[13] = Toxicity in F344 rat assessed as effect on serum cholesterol level at 75 ug per 100 g body weight, ig administered daily for 3 days (reference value: 67.2 +/- 2.5 mg/dl); details: in vivo, po, 72 h, dose 75 µg, time 3 day
[14] = Toxicity in F344 rat assessed as effect on serum bilirubin level at 50 ug per 100 g body weight, ig administered daily for 3 days (reference value: 1.4 +/- 0.2 mg/dl); details: in vivo, po, 72 h, dose 50 µg, time 3 day
[15] = Toxicity in F344 rat assessed as effect on serum AST/GOT level at 75 ug per 100 g body weight, ip administered daily for 3 days (reference value: 153 +/- 11 U/L); format: organism-based; details: in vivo, 72 h, dose 75 µg, time 3 day
[16] = target: T1, AMP-activated protein kinase, AMPK (Homo sapiens); assay: Activation of AMPK in human HepG2 cells assessed as ratio of phosphorylated ACC at 10 uM measured after 24 hrs by Western blot analysis; format: cell-based; details: filed as activator
[17] = target: T2, Thyroid hormone receptor beta (Homo sapiens, UniProt P10828); assay: Agonist activity at TRbeta (unknown origin) by Lanthascreen TR-FRET assay
T2 sequence (P10828 whole entry): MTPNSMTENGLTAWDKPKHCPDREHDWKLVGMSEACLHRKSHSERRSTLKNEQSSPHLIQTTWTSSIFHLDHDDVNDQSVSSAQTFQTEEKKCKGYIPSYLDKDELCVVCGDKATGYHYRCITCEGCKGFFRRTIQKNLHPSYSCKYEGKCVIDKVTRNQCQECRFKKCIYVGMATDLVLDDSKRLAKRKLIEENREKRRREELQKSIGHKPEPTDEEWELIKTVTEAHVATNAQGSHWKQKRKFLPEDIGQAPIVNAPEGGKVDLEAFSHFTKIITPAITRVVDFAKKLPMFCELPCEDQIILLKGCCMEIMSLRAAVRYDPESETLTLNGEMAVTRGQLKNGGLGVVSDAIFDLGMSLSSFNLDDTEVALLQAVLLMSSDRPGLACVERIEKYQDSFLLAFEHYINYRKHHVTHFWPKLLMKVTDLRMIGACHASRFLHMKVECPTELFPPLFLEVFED

[18] = target: T3, Thyroid hormone receptor alpha (Homo sapiens, UniProt P10827); assay: Agonist activity at TRalpha (unknown origin) by Lanthascreen TR-FRET assay
T3 sequence (P10827 whole entry): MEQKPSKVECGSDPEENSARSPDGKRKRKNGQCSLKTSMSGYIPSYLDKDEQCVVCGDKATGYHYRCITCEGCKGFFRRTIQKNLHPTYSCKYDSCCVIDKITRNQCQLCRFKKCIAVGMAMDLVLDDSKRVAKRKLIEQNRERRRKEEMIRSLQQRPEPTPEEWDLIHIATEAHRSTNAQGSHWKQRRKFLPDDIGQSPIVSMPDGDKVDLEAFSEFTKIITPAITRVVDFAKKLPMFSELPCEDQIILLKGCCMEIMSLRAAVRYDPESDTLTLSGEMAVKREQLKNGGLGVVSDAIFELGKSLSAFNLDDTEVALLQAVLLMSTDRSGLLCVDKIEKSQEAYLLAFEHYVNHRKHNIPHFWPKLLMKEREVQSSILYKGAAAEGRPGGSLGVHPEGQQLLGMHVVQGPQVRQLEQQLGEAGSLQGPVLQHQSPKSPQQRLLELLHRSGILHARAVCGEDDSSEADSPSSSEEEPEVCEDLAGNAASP

[19] = target: T4, TRalpha (thyroid hormone receptor alpha) (Homo sapiens, UniProt P10827); assay: Agonist activity at TRalpha (unknown origin) at 1 uM by Lanthascreen TR-FRET assay relative to control; details: read-out: Activity
T4 sequence (P10827 whole entry): T3 sequence (P10827 whole entry)

SMILES	Activity [1]	Activity [2]	Activity [3]	Activity [4]	Activity [5]	Activity [6]	Activity [7]	Activity [8]	Activity [9]	Activity [10]	Activity [11]	Activity [12]	Activity [13]	Activity [14]	Activity [15]	Activity [16]	pEC50 [17]	pEC50 [18]	activity at 1 µM [19]
CC(=O)Nc1ccc(Cc2c(C)cc(OCC(=O)O)cc2C)cc1C(C)C	46 U/L	46 U/L	Non-Toxic	74.2 mg/dL	129 mg/dL	Active	38 U/L	1.5 mg/dL	62.8 mg/dL	67.6 mg/dL	164 mg/dL	108 U/L	71.4 mg/dL	1.1 mg/dL	134 U/L	Active	–	–	–
Cc1cc(OCC(=O)O)cc(C)c1Cc1ccc(O)cc1	–	–	–	–	–	–	–	–	–	–	–	–	–	–	–	–	7.49	7.27	–
Cc1cc(OCC(=O)O)cc(C)c1Cc1ccc(N)c(C(C)C)c1	41 U/L	43 U/L	Non-Toxic	79.6 mg/dL	136 mg/dL	Active	36 U/L	1.1 mg/dL	67.8 mg/dL	70.1 mg/dL	166 mg/dL	102 U/L	68.6 mg/dL	1.3 mg/dL	123 U/L	Active	–	–	30%
